We go through 13 molecules from patent publication US20260062412A1, “NITROGEN-CONTAINING HETEROCYCLIC COMPOUND HAVING MYT1 INHIBITORY ACTIVITY” (CHUGAI SEIYAKU KABUSHIKI KAISHA, priority 2023, published 2026).

As a reminder, the IC50 is the midpoint of a concentration-inhibition curve. Read a high IC50 as lower potency.

In this test the target is MYT1 protein (Homo sapiens (Human), UniProt Q99640). Briefly: Test for binding to ATP binding site of MYT1 (Kinase Tracer 178 / Eu-Anti-GST antibody TR-FRET). The conditions noted are these: ATP binding site of MYT1, 30 minutes at room temperature. For orientation: Time-resolved FRET reads energy transfer from a long-lived donor to a nearby acceptor.
Sequence of MYT1 protein (Q99640 whole entry): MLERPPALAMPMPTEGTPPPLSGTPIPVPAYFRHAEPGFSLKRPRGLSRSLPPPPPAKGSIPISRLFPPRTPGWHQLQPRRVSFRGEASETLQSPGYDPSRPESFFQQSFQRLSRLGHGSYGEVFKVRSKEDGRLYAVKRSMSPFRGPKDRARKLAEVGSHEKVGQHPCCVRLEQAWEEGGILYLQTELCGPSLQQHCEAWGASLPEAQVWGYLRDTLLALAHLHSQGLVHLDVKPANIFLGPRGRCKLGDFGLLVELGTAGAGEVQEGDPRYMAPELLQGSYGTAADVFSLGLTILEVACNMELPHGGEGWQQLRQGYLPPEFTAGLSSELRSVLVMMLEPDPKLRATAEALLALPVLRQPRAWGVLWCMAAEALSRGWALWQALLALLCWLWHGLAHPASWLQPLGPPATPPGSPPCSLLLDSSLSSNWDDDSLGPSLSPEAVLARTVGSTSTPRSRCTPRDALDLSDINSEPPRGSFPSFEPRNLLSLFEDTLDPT

`CC(C)(O)CCOc1cc2c(-c3ccc(F)c4[nH]ncc34)c(N)c(=O)[nH]c2c2cccnc12` [Compound C20, 3-Amino-4-(7-fluoro-1H-indazol-4-yl)-6-(3-hydroxy-3-methylbutoxy)-1H-1,7-phenanthrolin-2-one]: the IC50 is 3.6 nM.

Molecule `Nc1c(-c2ccc(F)c3[nH]ncc23)c2cc(OC(F)F)c3ncccc3c2[nH]c1=O` [Compound C21, 3-Amino-6-(difluoromethoxy)-4-(7-fluoro-1H-indazol-4-yl)-1H-1,7-phenanthrolin-2-one] showed an IC50 of 2.8 nM. As for `C[C@H](Oc1cc2c(-c3ccc(F)c4[nH]ncc34)c(N)c(=O)[nH]c2c2cccnc12)C(F)(F)F` [Compound C22, 3-Amino-4-(7-fluoro-1H-indazol-4-yl)-6-[(2S)-1,1,1-trifluoropropan-2-yl]oxy-1H-1,7-phenanthrolin-2-one], the IC50 amounted to 7.9 nM.

For `Nc1c(-c2ccc(F)c3[nH]ncc23)c2cc(OC3CC(F)(F)C3)c3ncccc3c2[nH]c1=O` [Compound C23, 3-Amino-6-(3,3-difluorocyclobutyl)oxy-4-(7-fluoro-1H-indazol-4-yl)-1H-1,7-phenanthrolin-2-one], the half-inhibitory concentration (IC50) is 5 nM. The same measure for `CC(C)(O)COc1cc2c(-c3ccc(F)c4[nH]ncc34)c(N)c(=O)[nH]c2c2cccnc12` [Compound C24, 3-Amino-4-(7-fluoro-1H-indazol-4-yl)-6-(2-hydroxy-2-methylpropoxy)-1H-1,7-phenanthrolin-2-one]: 6.5 nM. The same measure for `CC(F)(F)COc1cc2c(-c3ccc(F)c4[nH]ncc34)c(N)c(=O)[nH]c2c2cccnc12` [Compound C25, 3-Amino-6-(2,2-difluoropropoxy)-4-(7-fluoro-1H-indazol-4-yl)-1H-1,7-phenanthrolin-2-one]: 2.8 nM. Regarding `COCC(F)(F)COc1cc2c(-c3ccc(F)c4[nH]ncc34)c(N)c(=O)[nH]c2c2cccnc12` [Compound C26, 3-Amino-6-(2,2-difluoro-3-methoxypropoxy)-4-(7-fluoro-1H-indazol-4-yl)-1H-1,7-phenanthrolin-2-one], the half-inhibitory concentration (IC50) was 2.3 nM. The same measure for `C[C@@H](Oc1cc2c(-c3ccc(F)c4[nH]ncc34)c(N)c(=O)[nH]c2c2cccnc12)C(F)(F)F` [Compound C27, 3-Amino-4-(7-fluoro-1H-indazol-4-yl)-6-[(2R)-1,1,1-trifluoropropan-2-yl]oxy-1H-1,7-phenanthrolin-2-one]: 4.4 nM; for `Nc1c(-c2ccc(F)c3[nH]ncc23)c2cc(O[C@H]3C[C@@H](F)C3)c3ncccc3c2[nH]c1=O` [Compound C28, 3-Amino-4-(7-fluoro-1H-indazol-4-yl)-6-((1s,3s)-3-fluorocyclobutoxy)-1,7-phenanthrolin-2(1H)-one]: 1.8 nM; for `CO[C@H]1C[C@@H](Oc2cc3c(-c4ccc(F)c5[nH]ncc45)c(N)c(=O)[nH]c3c3cccnc23)C1` [Compound C29, 3-Amino-4-(7-fluoro-1H-indazol-4-yl)-6-((1s,3s)-3-methoxycyclobutoxy)-1,7-phenanthrolin-2(1H)-one]: 3.3 nM.

`CO[C@H]1C[C@H](Oc2cc3c(-c4ccc(F)c5[nH]ncc45)c(N)c(=O)[nH]c3c3cccnc23)C1` [Compound C30, 3-Amino-4-(7-fluoro-1H-indazol-4-yl)-6-((1r,3r)-3-methoxycyclobutoxy)-1,7-phenanthrolin-2(1H)-one]: the IC50 was 5.8 nM. Regarding `N#C[C@H]1C[C@H](Oc2cc3c(-c4ccc(F)c5[nH]ncc45)c(N)c(=O)[nH]c3c3cccnc23)C1` [Compound C31, (1r,3r)-3-[[3-Amino-4-(7-fluoro-1H-indazol-4-yl)-2-oxo-1H-1,7-phenanthrolin-6-yl]oxy]cyclobutane-1-carbonitrile], the IC50 was 4.3 nM. The molecule `Nc1c(-c2ccc(F)c3[nH]ncc23)c2cc(OCCC(F)F)c3ncccc3c2[nH]c1=O` [Compound C32, 3-Amino-6-(3,3-difluoropropoxy)-4-(7-fluoro-1H-indazol-4-yl)-1H-1,7-phenanthrolin-2-one] showed an IC50 of 3.5 nM.
